Where two headings read alike, the source gives them in different places.

One may read the IC50 as the point on the concentration scale where inhibition reaches its midpoint.

Data set [1] relates to MCTs. The data set is described as follows: Dynamic PET/MRI in mice with pre-treatment. It counts as in vivo, mouse. The settings on record: for AUC0–60 min gall bladder / AUC0–60 min kidney cortex / AUC0–60 min liver / AUC0–60 min small intestine / AUC0–60 min whole blood: mouse, in vivo. The method, then: (§1) The biodistribution of [^18F]FACH in mice was assessed by small animal PET (Nanoscan, Mediso, Budapest, Hungary) with dynamic 60 min emission recordings, followed by T1 weighted GRE MR (TR = 15.0 ms, TE = 2.4 ms, FA = 25°) imaging for anatomical correlations and attenuation correction. The mice (n = 20) weighing 32.2 ± 2.9 g were anaesthetised with 2% isoflurane in 60% oxygen, and placed on a thermostatically heated animal bed. The animals then received i.v. injections of 0.9% saline (control), reference compound (10 mg/kg), or α-CCA-Na (25 mg/kg) ten min prior or 20 min after (displacement studies) [^18F]FACH administration (2.3–8.6 MBq, 0.5–11.2 nmol/kg). List mode PET data were binned as a series of attenuation-corrected sinogram frames (12 × 10 s, 6 × 30 s, 5 × 60 s and 10 × 300 s) and were reconstructed by Ordered Subset Expectation Maximization (OSEM3D) with four iterations, six subsets and a voxel size of 0.4 mm³ (Nucline v2.01, Mediso).
(§2) The analysis of reconstructed datasets was performed with PMOD software (v4.103, PMOD Technologies LLC, Zurich, Switzerland).
(§3) Data are shown in mean ± standard deviation (SD). Group differences were tested by Student’s t-test, with p < 0.05 designated as significant. Area Under the Curves (AUCs) and corresponding 95% confidence intervals (CI95%s) were calculated with GraphPad Prism (v.8.2) following the assumptions described by Gagnon et al..

Data set [2] is described as follows: Extended single dose toxicity study in rats. It counts as in vivo, rat. The method, then: The extended single dose toxicity studies of FACH in male (n = 15) and female (n = 15) outbred Wistar rats were performed in the Biological Testing Laboratory (BTL) in Russia (Study Number 680/19). The test item FACH-Na was administered by single bolus i.v. injection at doses of 6.2, 62 and 620 μg/kg body weight (bw). Mortality, clinical pathology parameters (hematology and serum chemistry), organ weights and microscopic tissue parameters were investigated 24 h and two weeks after treatment.

Data set [3] relates to MCTs. The data set is described as follows: Autoradiographic competition study in mouse kidney cryosections. It counts as binding. The settings on record: 300 nM competitor, 1 nM [18F]FACH. The procedure: Cryosections from the mouse kidney (10 µm) were cut on a microtome (Microm HM560, Thermo Scientific Microm, Fisher Scientific GmbH, Schwerte, Germany), mounted on glass slides (SuperFrost, Thermo Scientific Menzel, Fisher Scientific GmbH), dried for two hours at room temperature, and stored at −25 °C. Before the binding experiment, the tissue slices were dried under a stream of cold air, pre-incubated with PBS (pH 7.4) for 15 min at room temperature and dried again before incubation with PBS containing [^18F]FACH (1.2 nM) without (total binding) and with different concentrations of FACH-Na (10 µM–0.1 nM; homologous competition) for 60 min. Specific binding to MCTs of [^18F]FACH in cryosections of mouse kidney was determined after co-incubation of 1 nM [^18F]FACH with vehicle or 300 nM α-CCa-Na or 300 nM reference compound (homologous competition).
The incubation was terminated by washing with ice-cold buffer (50 mM TRIS-HCl, pH 7.4) twice for two minutes followed by dipping in ice-cold demineralized water for 5 s and drying under a stream of cold air. […] KD and Bmax values were calculated by the simplified Cheng and Prusoff equation (http://www3.uah.es/farmamol/Public/GraphPad/radiolig.htm, accessed on 5 February 2021):(1) KD=Ki=IC50−Radioligand (M) (2) Bmax=Top−Bottom/Radioligand (M)/(KD+Radioligand (M))

Data set [4] has as its system MCT1. Also noted: method as in PMID 8779821. The following applies: cited from earlier work.
Data set [5] has as its system MCT1. Also noted: method as in PMID 31017677. The settings on record: L-[14C]lactate uptake, rat brain endothelial cells; read-out: IC50 towards MCT1; cited from earlier work.
A further data set relates to MCT4. Also noted: method as in PMID 31017677. The following applies: L-[14C]lactate uptake, MDA-MB231 cells; read-out: IC50 towards MCT4; cited from earlier work.
The subject of data set [6] is MCTs. Put plainly: Compartmental kinetic modelling of PET data in mice. It counts as in vivo, mouse. The settings on record: kidney cortex, 2-TCM, [18F]FACH after α-CCA-Na pre-treatment. The procedure:
(§4) Table 4 includes the results of 1-tissue-compartment kinetic modelling (1-TCM) of [^18F]FACH in the kidney cortex and the liver of the control and pre-treated mouse groups (α-CCA-Na and reference compound). […] The BPND was estimated as the ratio of [VT(control)/VT(pre-treatment)] − 1.
(§5) Kinetic analysis of reconstructed datasets was performed with PMOD software. First, image derived arterial input functions (IDIFs) were obtained from the left ventricle in mice and from an artery close to the kidney in piglet studies. IDIFs were corrected for partial volume effects, plasma fraction from hematocrit values (individually determined for each piglet directly before PET imaging; for mice set to 0.51 according to CD-1 Mouse Hematology sheet from Charles River Laboratories, 2011) and radio-metabolites (measured for piglets, and set to zero for mice). Tri-exponential metabolite-corrected fitted input functions were used for one and two tissue compartment modelling (1-TCM/2-TCM) of time activity curves (TACs) in tissue volumes of interest (VOIs). For both species the specific blood volume was set to 0.15 mL g^−1 in the kidney cortex and 0.128 mL g^−1 in the liver, according to published values.

The conditions of data set [7]: in vivo.
Protocol: (§6) Radio-metabolites were analyzed by analytical and semi-preparative HPLC on a JASCO LC-2000 system (JASCO Labor- und Datentechnik, Gross-Umstadt, Germany), consisting of a PU-2080 Plus pump, AS-2055 Plus auto injector (100 μL sample loop) or a manual injection valve with a 5 mL sample loop, and a UV-2070 Plus detector coupled with a gamma radioactivity HPLC detector (Gabi Star, Raytest Isotopenmessgeräte GmbH, Straubenhardt, Germany). Data analysis was performed with the Galaxie chromatography software (Agilent Technologies, Santa Clara, CA, USA). […] For analytical and semi-preparative radio-HPLC analyses, Reprosil-Pur columns (C18-AQ 250 × 4.6 mm; 5 μm; and C18-AQ 150 × 4.6 mm; 10 μm; Dr. Maisch HPLC GmbH; Ammerbuch-Entringen, Germany) were used. Acetonitrile (ACN) mixed with a 20 mM aqueous solution of ammonium acetate (NH4OAc) was used as eluent.
(§7) In corresponding piglet studies (n = 5), plasma was separated from the arterial blood samples drawn during the PET recordings at certain time points.
(§8) In piglet studies, similar procedures were implemented for preparing samples from plasma collected at 15, 30, 45 and 60 min p.i., with the exception of collecting the urine sample only at 60 min p.i. Additionally, in order to measure the radio-metabolites in the piglet kidney, the tissue was resected at 60 min p.i. and after washing in PBS, samples of the kidney cortex and medulla were isolated and homogenized in demineralized water (2 mL/g tissue) using a borosilicate glass mortar with ten strokes of a PTFE plunger at 1000 rpm (Potter S, Homogenizer, B. Braun Biotech, Sartorius AG, Göttingen, Germany). Protein precipitation was performed by addition of ice-cold ACN/H2O at a ratio of 4:1 (v/v) of organic solvent to each tissue sample. The samples were vortexed for 3 min, placed on ice for 3 min, and the suspensions were centrifuged at 12,000 rpm at 4 °C for 5 min. For the second extraction, the precipitates were washed with 200 μL of the solvent mixture and subjected to the same procedure. The combined supernatants (total volume between 68 mL) were concentrated at 70 °C under argon flow to a final volume of approximately 2 mL and analyzed by semi-preparative RP radio-HPLC. […] The analyses were performed in gradient mode using 10% ACN/20 mM NH4OAc (aq.) as eluent A and 90% ACN/20 mM NH4OAc (aq.) as eluent B under the following conditions:
(§9) To determine the percentage of the radioactivity in the supernatants compared to the total radioactivity aliquots were taken at each step and, as well as the precipitates, quantified by gamma counting.
(§10) By interpolation of the measured radio-metabolite fractions from the piglet PET studies, the continuous TACs for [^18F]FACH and its radio-metabolites were calculated. Subsequently, the magnitudes of the whole body rate constant for [^18F]FACH metabolism (k0) and the elimination rate constant for the radio-metabolites (k−1) under control and pre-treated conditions were calculated as described previously [32]. Graphical analysis of the integrals of the plasma time-concentration series of PET tracers and their radio-metabolite(s) follow a linear relationship [32, 47], where the ordinate intercept is equal to the whole body fractional rate constant for the metabolism of the parent, designated k0 (min^−1). The linear regression slope corresponds to the fractional rate constant for the elimination of the radio-metabolite from circulation, designated k−1 (min^−1), which indicates the renal clearance of the radio-metabolite.
Data set [8] can be described thus: Metabolism and renal excretion of [18F]FACH in piglets (radio-HPLC, graphical analysis). The settings on record: piglet pre-treated with α-CCA-Na, 60 min p.i.
Protocol: as §6, §7, §8, §9, §10
The test system of data set [9] is MCTs. Put plainly: PET displacement study in mice. It counts as in vivo, mouse. The method, then: as §1, §2
The subject of data set [10] is MCTs. It counts as in vivo, piglet. The method, then:
The piglets (n = 6) were inititally anaesthetised with intramuscular injections of stresnil and ursotamin, and anaesthesia was maintained with intravenous ursotamin and midazolam, as required. The hematocrit was measured in an ear vein blood sample collected just prior to imaging. Either saline (n = 3) or 25 mg/kg α-CCA-Na (n = 3) in saline was administrated ten min before i.v. administration of [^18F]FACH (261–327 MBq, corresponding to 218–852 pmol/kg) via an ear vein. Imaging was performed with a simultaneous hybrid PET/MR system (mMR Biograph; Siemens, Erlangen, Germany) equipped with dedicated phased-array surface. PET data were reconstructed into a 128 × 128 matrix (voxel size: 1.40 × 1.40 × 2.03 mm^3) using the built-in OSEM3D algorithm with eight iterations, 21 subsets, and a 3-mm Gaussian filter. The attenuation and decay corrected dynamic sequence consisted of 32 frames as follows: 1 × 15, 11 × 30, 1 × 45, 5 × 60, 1 × 90, 5 × 120, 1 × 180, 4 × 240, 1 × 300, 2 × 360 s, whereas activity concentrations in VOIs are represented in units of SUV or percentage of injected dose (%/ID). After completing the dynamic PET recording, piglets were euthanized with an i.v. overdose of T61 (Intervet Deutschland GmbH, Unterschleißheim, Germany) and tissues were sampled for radio-metabolism studies in selected animals.
as §2, §3

Data set [11] relates to MCTs. The data set is described as follows: Compartmental kinetic modelling of PET data in piglets. The following applies: living piglets, α-CCA-Na dose. It counts as in vivo, piglet. The method, then:
as §4, §5

Setting [12] is: mice, reference compound 10 mg/kg pre-treatment.

For the compound `CCCN(CCCF)c1ccc(/C=C(\C#N)C(=O)[O-])c(OC)c1.[Na+]` [FACH-Na], in the data set with MCTs [1] (setting [12]), the “reduction of [18F]FACH AUC0–60min in kidney cortex vs control” value was found to be 79% and the “reduction of [18F]FACH AUC0–60min in liver vs control” value was 44%. In the data set with MCTs [1] (10 mg/kg), the “AUC0–60 min gall bladder” value is on record as 1388 SUV min, the “AUC0–60 min kidney cortex” value came to 62 SUV min, the “AUC0–60 min liver” value is 250 SUV min and the “AUC0–60 min small intestine” value is 405 SUV min. In the data set on MCTs [1] (10 mg/kg), the “AUC0–60 min whole blood” value was found to be 125 SUV min. For the same compound, the “no-observed-adverse-effect-level (NOAEL)” value in [2] (Wistar rats, single bolus i.v.) was 620 µg FACH-Na/kg bodyweight. Further, in data set [2] (rats), the “NOAEL relative to the equivalent to the human dose (0.1 µg/kg)” value was “approximately 1000 fold”. Also, the “displacement of [18F]FACH” value in the data set with MCTs [3] is 41%.

`N#CC(=Cc1ccc(O)cc1)C(=O)O` [α-CCA, α-cyano-4-hydroxycinnamic acid]: in the data set with MCT1 [4], the “selectivity for MCT1 (MCT1/4) compared to the other subtypes” value is “ten-fold higher selectivity”.

As to `CCCN(CCCF)c1ccc(/C=C(\C#N)C(=O)O)c(OC)c1` [FACH], the IC50 is 11 nM in the data set with MCT1 [5] and 6.5 nM in the data set with MCT4.

Regarding `N#CC(=Cc1ccc(O)cc1)C(=O)[O-].[Na+]` [α-CCA-Na, reference compound], the “BPND = k3/k4 (2-TCM)” value in the data set on MCTs [6] was 12.96±5.40 1/1. For the same compound, the “selectivity for MCT1 (MCT1/4) compared to the other subtypes” value with MCT1 [4] is 10 fold. Also, in [7], the “rate constant for elimination of radio-metabolites from plasma (k−1)” value was found to be 0.020 ± 0.003 min⁻¹. The “parent fraction of [18F]FACH in kidney cortex” value in data set [8] is 17.0%. Moreover, the “decrease of kidney cortex SUV” value with MCTs [9] (mice, 5 min after i.v. α-CCA-Na 25 mg/kg given 20 min after tracer) was found to be 66%. In the data set on MCTs [9] (mouse, in vivo), the “kidney cortex SUV” value is listed as 1.41 ± 0.36. In the data set on MCTs [1] (25 mg/kg), the “AUC0–60 min gall bladder” value was 486 SUV min, the “AUC0–60 min kidney cortex” value was found to be 153 SUV min, the “AUC0–60 min liver” value is listed as 417 SUV min and the “AUC0–60 min small intestine” value came to 180 SUV min. Also, in the data set with MCTs [1] (25 mg/kg), the “AUC0–60 min whole blood” value was 63 SUV min. For the same compound, in the data set on MCTs [10] (in vivo, 25 mg/kg), the “AUC0–60 min gall bladder” value came out at 4453 SUV min, the “AUC0–60 min kidney cortex” value came out at 178 SUV min, the “AUC0–60 min kidney medulla” value stood at 1264 SUV min and the “AUC0–60 min liver” value is listed as 286 SUV min. Moreover, in the data set with MCTs [10] (in vivo, 25 mg/kg), the “AUC0–60 min plasma” value is 40 SUV min and the “AUC0–60 min vertebrae” value is given as 100 SUV min. In the data set on MCTs [10] (piglets), the “kidney uptake blocked by α-CCA-Na pre-treatment” value is given as “about 60%”. Moreover, in the data set on MCTs [10] (piglets, α-CCA-Na 25 mg/kg pre-treatment), the “reduction of [18F]FACH AUC0–60min in kidney medulla” value was determined as 50%. In addition, in the data set on MCTs [3], the “displacement of [18F]FACH” value is listed as 8%. Moreover, the “specifically bound radiotracer displaced” value in the data set on MCTs [11] was “around 50%”.

The values are drawn from publication PMC7915902, “Preclinical Evaluation of [^18F]FACH in Healthy Mice and Piglets: An ^18F-Labeled Ligand for Imaging of Monocarboxylate Transporters with PET” (International Journal of Molecular Sciences, 2021).
